Laboratory results as given in patent US11564913B2, “Compositions and methods for treating cancer” (Children's Hospital Medical Center, priority 2019, dated 2023).

Assays:
[1] = molecular target: Vav3 binding to Rac in empty vector Ba/F3 cells (Mus musculus, UniProt Q9R0C8); test: GST-Rac pull-down, immunoblot for pVav3; format: cell-based, murine; conditions: 3 μM, 30 min
Experimental: (§1) FIG. 14: IODVA1 targets Vav3 in vitro and in vivo. (A) Ba/F3 cells expressing empty vector Mieg3 or p190-BCR-ABL1 were treated with vehicle control or IODVA1 (IO1, 3 μM) for 30 min and incubated with GST-Rac and glutathione beads. Beads were washed and the protein complexes were separated on SDS-PAGE and immunoblotted for pVav3. Input Vav3 was used as control. (B) Binding affinity (Kd) between IODVA1 and Vav3 (green), LARG (brown), and RacGDP (blue). […] Error bars=SD; N=3. (C) Quantification of the average number of colonies made by bone marrow wild-type (black) and Vav3^−/− (lilac) p190-BCR-ABL1 leukemic cells treated with vehicle control or IODVA1 (IO1, 1 and 3 μM) (* p≤0.05; ** p≤0.01; *** p≤0.001; ns, not significant). (D) Representative histogram data of the cell cycle analysis of wild-type (black and grey bars) and Vav3^−/− (dark and light lilac) bone marrow cells expressing p190-BCR-ABL and treated with vehicle control or IODVA1 (IO1, 3 μM) for 20 h. (E) Quantification by densitometry of the pVav3 band from FIG. 14A. […]
(§2) Rac activity and signaling is regulated by GAPs, GDIs, and RacGEFs. […] The pull-down protein complex was separated on SDS-PAGE and immunoblotted for pVav3 and Vav3 and quantified (FIGS. 14A & 14E). […]

[2] = molecular target: Vav3 binding to Rac in p190-BCR-ABL Ba/F3 cells (Mus musculus, UniProt Q9R0C8); test: GST-Rac pull-down, immunoblot for pVav3; format: cell-based, murine; conditions: 3 μM, 30 min
Experimental: as §1, §2

[3] = test system: MCF7, T47D, and MDA-MB-231 cells; test: Colony formation in soft agar, breast cancer cells; format: cell-based; conditions: 1 and 3 μM
Experimental: FIG. 4. IODVA1 inhibits proliferation of cancer model cells. (A) IODVA1 is a potent cell proliferation inhibitor. MCF10A, MCF7, MDA-MB-231, and T47D cells were grown in the presence of the indicated IODVA1 concentrations and counted for 4 or up to 7 days. Each dot and bar is the mean±stdev respectively, of 3 independent experiments, with 2 technical replicates in each experiment. (B) Number of colonies made by MCF7, T47D, and MDA-MB-231 cells at the indicated IODVA1 concentrations. Results shown are mean±stdev of 2 independent experiments with 4 technical replicates each. (C) IODVA1 deactivates Ras at late incubation times. […] Quantification summary of 2 independent experiments is presented in the graph. n.s.—not significant, *-p<0.05, **-p<0.01, ****-p<0.0001. (D) IODVA1 inhibits proliferation of ST8814 cells. ST8814 cells were grown in the presence of the indicated IODVA1 concentrations and counted daily for 4 days. Each dot and bar is the mean and standard deviation respectively, of 3 independent experiments.
Applicants tested IODVA1's ability to inhibit the proliferation of cells harboring activated Ras and therefore its ability to recapitulate the compound obtained from the NCI. […] Cells were grown in growth media containing IODVA1 at concentrations between 0.1 and 10 μM or vehicle control and cell number was counted using the trypan blue exclusion method. […]

Vav3 binding to Rac in empty vector Ba/F3 cells, sequence (Q9R0C8 whole entry): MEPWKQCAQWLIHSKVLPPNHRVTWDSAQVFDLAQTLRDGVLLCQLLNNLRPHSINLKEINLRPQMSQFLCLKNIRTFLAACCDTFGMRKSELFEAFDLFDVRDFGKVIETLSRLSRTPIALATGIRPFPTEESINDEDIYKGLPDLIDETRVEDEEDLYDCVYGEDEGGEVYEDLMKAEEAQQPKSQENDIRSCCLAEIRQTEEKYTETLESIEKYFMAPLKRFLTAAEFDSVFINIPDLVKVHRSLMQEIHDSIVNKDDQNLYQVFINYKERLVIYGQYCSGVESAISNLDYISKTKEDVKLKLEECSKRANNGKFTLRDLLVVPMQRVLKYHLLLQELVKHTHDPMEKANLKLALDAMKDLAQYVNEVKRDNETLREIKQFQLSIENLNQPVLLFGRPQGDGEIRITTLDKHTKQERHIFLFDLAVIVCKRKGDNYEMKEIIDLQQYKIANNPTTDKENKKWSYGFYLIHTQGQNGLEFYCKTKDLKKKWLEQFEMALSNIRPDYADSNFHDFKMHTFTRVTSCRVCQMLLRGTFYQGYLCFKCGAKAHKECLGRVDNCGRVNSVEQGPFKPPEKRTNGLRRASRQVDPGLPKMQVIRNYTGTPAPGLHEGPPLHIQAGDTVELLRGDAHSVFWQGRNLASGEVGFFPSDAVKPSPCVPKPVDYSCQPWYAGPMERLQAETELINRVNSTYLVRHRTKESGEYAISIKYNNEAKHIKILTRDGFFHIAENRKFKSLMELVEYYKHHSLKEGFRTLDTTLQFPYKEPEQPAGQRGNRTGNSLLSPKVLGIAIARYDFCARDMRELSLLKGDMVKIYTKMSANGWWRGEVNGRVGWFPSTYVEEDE
Vav3 binding to Rac in p190-BCR-ABL Ba/F3 cells, sequence (Q9R0C8 whole entry): as above

Question: `OC1(c2ccccn2)N=C(Nc2nc3ccccc3[nH]2)N=C1c1ccccn1` (stereo not drawn) [IODVA1, (Z)-2-((1H-benzo[d]imidazol-2-yl)imino)-4,5-di(pyridin-2-yl)-2,5-dihydro-1H-imidazol-5-ol] was tested. Which “Vav3 or pVav3 bound to Rac” value [1] did it give?
Answer: no significant change

Question: What about the “decrease in intensity of pVav3 band bound to Rac” value [2] of the same molecule?
Answer: 8 times

Question: And the “number of colonies in soft agar” value [3]?
Answer: significantly decreases
